The subject of series [1] is T. brucei brucei BSF. Kind of series: T. brucei BSF viability, resazurin reduction. The format is cell-based, Trypanosoma brucei brucei. As to conditions: for EC50: ± SD (Table 2) / ± SE (S3 Table); for viability at 25 µM: read-out: viability, T.brucei (25 µM).
Series [2] relates to T. brucei brucei BSF. More on the design: method as in PMID 29425238. As to conditions: read-out: reported EC50 T. brucei; cited from earlier work.
The next series relates to L. major promastigotes. As to the kind of experiment: L. major promastigote viability, resazurin reduction. As to conditions: Leishmania major, read-out: viability, L.major promastigote (25 µM). The format is cell-based, Leishmania major. From the text: (§1) The infectivity of the parasites was boosted by passaging in Balb/c mice and culturing the infected lymph nodes after six weeks. L. infantum (MHOM / BR / 76 / M4192) parasite was passaged in the same media formulation with 0.5% urine.

In series [3] the test system is L. infantum promastigotes. As to the kind of experiment: L. infantum promastigote viability, resazurin reduction. The format is cell-based, Leishmania infantum. As to conditions: Leishmania infantum, sheet LTC_compound_viability, value ± spread; for viability at 2.5 µM: read-out: viability, L. infantum promastigote (2.5 µM); for viability at 25 µM: read-out: viability, L. infantum promastigote (25 µM).
From the text: as §1

In series [4] the test system is L. major axenic amastigotes. As to the kind of experiment: L. major axenic amastigote viability, resazurin reduction. As to conditions: Leishmania major; for viability at 25 µM: read-out: viability, L.major amastigote (25 µM); for viability at 2.5 µM: read-out: viability, L.major amastigote(2.5 µM). The method in brief:
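Axenic L. major LV561 amastigotes were grown in Grace medium with 20% FCS, pH 5.4, at 33°C and seeded at 0.5x10^5 cells/well with compounds for 72 h. Resazurin was then added for 6 h and fluorescence read at ex 550/em 590 nm; hits were retested at 2.5 μM.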

The subject of series [5] is intracellular L. infantum amastigotes. Kind of series: Parasite rescue assay (intramacrophage, J774 infected with L. infantum). The format is cell-based, Leishmania infantum. As to conditions: for viability at 25 µM: J774, rescue assay in J774, 25 µM, read-out: Residual viability, intracellular L. infantum amastigote (25 µM). How it is done:
After 24 h incubation, cells were washed five times with serum free RPMI and exposed to a serial dilution of test compounds, prepared using an acoustic dispenser (Echo 650, Labcyte), in RPMI (2% FCS). After two days, cells were washed thrice, and 20 μl of 0.05% SDS in RPMI was added upon removal of the supernatant. Upon incubation under orbital shaking for 30 seconds, cell lysis was stopped by addition of 180 μl M199 medium supplemented with 10% FCS. […] Then, fluorescence intensity of the samples was measured with a microplate reader (Synergy H1, BioTek) with λEx: 550 nm and λEm: 590 nm. Percent of viability was calculated according to cell only and media controls.
J774A.1 cells (J774) were infected with L. infantum metacyclic promastigotes. […] After controlled lysis of the infected macrophages, the released parasites were quantified using a resazurin based viability assay.

Another series relates to T. cruzi trypomastigotes. Kind of series: T. cruzi viability, resazurin reduction. As to conditions: Trypanosoma cruzi; for viability at 2.5 µM: read-out: viability, T.cruzi (2.5 µM); for viability at 25 µM: read-out: viability, T.cruzi (25 µM). The format is cell-based, Trypanosoma cruzi. The method in brief: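 Y-strain trypomastigotes kept in supplemented liver infusion tryptose broth with 10% FCS, pH 7.2, at 28°C. Viability by fluorescence resazurin reduction; single-point screen at 2.5 μM, then 18-concentration dose response. Amphotericin B as control drug.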

The subject of the next series is E. histolytica. Kind of series: E. histolytica viability, ATP luminescence (Cell titer glo). The format is cell-based, Entamoeba histolytica. As to conditions: Entamoeba histolytica; for viability at 2.5 µM: read-out: viability, E.histolytica (2.5 µM); for viability at 25 µM: read-out: viability, E.histolytica (25 µM). The method, boiled down: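 E. histolytica strain B2-5 at 2.5x10^4 cells/ml was exposed to compound for 48 h at 37 °C under anaerobic conditions, with viability read as ATP luminescence (CellTiter-Glo). The primary screen used 25 μM in triplicate, and follow-up potency runs used 9–16-point ranges spanning 0.01–100 μM.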

Series [6] is described as follows: Cytotoxicity assay J774, resazurin reduction. The format is cell-based, murine. As to conditions: mouse, J774 macrophage cells; for viability at 72 h, 2.5 µM: read-out: viability, J774 (2.5 µM); for viability at 72 h, 25 µM: read-out: viability, J774 (25 µM). The method in brief:
(§2)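 J774 and HepG2 cells were seeded at 0.5x10^5 cell/well and exposed to serially diluted compounds for 72 h at 37°C, 5% CO2. Viability was read by fluorescence resazurin reduction (λEx 550 nm, λEm 590 nm).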

Series [7] relates to Murine macrophage cells (J774). As to the kind of experiment: Cytotoxicity assay J774, resazurin reduction. As to conditions: cytotoxicity, 72 h. The format is cell-based. The method, boiled down:
as §2

Series [8] deals with human hepatocyte carcinoma HepG2 cells. Kind of series: Cytotoxicity assay HepG2, resazurin reduction. The format is cell-based. As to conditions: cytotoxicity, 72 h, read-out: EC50 (CT50) HepG2. How it is done:
Mammalian cell lines (J774 and HepG2) were passaged in RPMI media supplemented with MEM, Pen-Strep (1%) and 10% FCS. Cultures were kept at 37°C incubator with 5% CO2 in filter-cap flasks.
Murine macrophage cells (J774) and human hepatocyte carcinoma HepG2 cells were seeded at 0.5x10^5 cell/well in 384 well plates in triplicate, exposed to serial dilution of compounds, dispensed using an Echo 650 acoustic dispenser (Labcyte). After incubation for 72 h at 37°C, 5% CO2, cell viability was determined using fluorescence resazurin reduction assay (λEx: 550 nm; λEm: 590 nm).

The subject of series [9] is intracellular L. infantum amastigotes. Kind of series: Parasite rescue assay (intramacrophage, J774 infected with L. infantum). The format is cell-based, Leishmania infantum. As to conditions: J774, 25 µM; intracellular amastigote; read-out: viability, intracellular L. major amastigote (25 µM).
The mark [10] stands for this setting: Leishmania infantum, J774, read-out: EC50 L. infantum rescue assay, intramacrophage (J774), 18 concentrations.
Where [11] appears, read: read-out: EC50 L. infantum rescue assay, intramacrophage (J774), 18 concentrations.
The mark [12] stands for this setting: Trypanosoma brucei, 2.5 µM, read-out: viability, T.brucei (2.5 µM).
Where [13] appears, read: Trypanosoma brucei, read-out: EC50 T. brucei BSF, dose response, triplicate.

This is an account of results in publication PMC10994559 (PLOS Neglected Tropical Diseases, 2024).

Several values for one entry are separate records, joined by “and”; a condition that tells them apart may be missing. Equal entries are not always repeated. Where two headings read alike, the source gives them in different places.

Consider `NCc1ccc(Oc2ccc3c(c2)COB3O)cc1` [AN3057, reference compound], for which the “Residual viability, T.brucei (2.5 µM)” value in the series with T. brucei brucei BSF [1] (BSF, 2.5 µM, 72 h) was 0.3%; in the series on T. brucei brucei BSF [1] (BSF, 2.5 µM, 72 h, listed as An3057, 2.5 µM) it was 0.32±0.58%. In the series with T. brucei brucei BSF [1] (BSF, 25 µM, 72 h), the “Residual viability, T.brucei (25 µM)” value is recorded as -2.85±1.48%. The EC50 was 0.005 ± 0.002 µM in the series with T. brucei brucei BSF [1] (dose response, triplicate, read-out: EC50 T. brucei BSF) and 0.0052 µM in the series on T. brucei brucei BSF [2].
Take `CC(C)(C)OC(=O)NC(Cc1ccccc1)C(O)CNc1cccc(C(F)(F)F)c1` (centres unmarked) [LTC-1025]: the viability at 25 µM in the series on L. major promastigotes (72 h) turned out to be 88.3 ± 1.36%; in the series on L. major promastigotes (25 µM), 0.16 ± 0.69%; in series [3] it was 0.7 ± 0.03%; in [4] it was 21.2 ± 2.05%; in [5] (Leishmania infantum), 2.8%; with T. brucei brucei BSF [1] (Trypanosoma brucei, 25 µM), 2.26 ± 1.07%. The viability at 25 µM worked out at 23.4 ± 2.5% in the series with T. cruzi trypomastigotes and 55.3 ± 4.32% in the series with E. histolytica. The viability at 2.5 µM worked out at 55.3 ± 1.69% in series [3]; 77 ± 1.6% in series [4]; 78 ± 4.59% in the series on T. brucei brucei BSF [1] (setting [12]); 63.1 ± 2.47% with T. cruzi trypomastigotes; 45.9 ± 11.6% with E. histolytica. For the same compound, the EC50 is 2.9 ± 2.9 µM in series [5] (setting [10]); 2.8 µM and 2.84 µM in [5] (setting [11]); 3.7 ± 1.7 µM in the series with T. brucei brucei BSF [1] (setting [13]); over 25 µM in series [7] (Mus musculus, J774, 72 h); over 16 µM in series [7]; 31.6 ± 1.7 µM in [8] (Homo sapiens, HepG2, 72 h). Moreover, in series [8], the EC50 was 33.8 µM and 31.6 µM. In addition, the viability at 72 h, 2.5 µM in series [6] is 75.1 ± 3.41%. In addition, the viability at 72 h, 25 µM in [6] worked out at 98.5 ± 8.61%.
As for `CC(C)(C)OC(=O)NC(Cc1ccccc1)C(O)CNc1ccc(OC(F)(F)F)cc1` (centres unmarked) [LTC-1023], the viability at 25 µM is 88.6 ± 3.09% in the series with L. major promastigotes (72 h); 0.83 ± 1.76% in the series on L. major promastigotes (25 µM); 1.5 ± 0.05% in [3]; 18 ± 1.91% in [4]; 4.9% in series [5] (Leishmania infantum); 1.99 ± 1% in the series on T. brucei brucei BSF [1] (Trypanosoma brucei, 25 µM). The figures for the viability at 25 µM with T. cruzi trypomastigotes and in the series on E. histolytica were 23.2 ± 1.67% and 59.6 ± 14.7%, respectively. Moreover, the viability at 2.5 µM in [3] was 67.5 ± 2.44%; in [4] it was 68.4 ± 1.28%; in the series with T. brucei brucei BSF [1] (setting [12]) it was -1.06 ± 0.31%; in the series with T. brucei brucei BSF [1] (Trypanosoma brucei, 72 h, read-out: Residual viability, T.brucei (2.5 µM), BSF, 2.5 µM, 72 h), under 10%; in the series on T. cruzi trypomastigotes, 58.51 ± 0.23%; with E. histolytica it was 48.5 ± 4.19%. For the same compound, the EC50 in [5] (setting [10]) was 4.1 ± 1.8 µM; in series [5] (setting [11]), 4.08 ± 1.8 µM; in the series on T. brucei brucei BSF [1] (setting [13]), 1.1 ± 1.7 µM; in [7] (Mus musculus, J774, 72 h), over 25 µM; in series [7] it was over 16 µM; in series [8] (Homo sapiens, HepG2, 72 h), 16.7 ± 1.9 µM. Also, the EC50 in series [8] was 31.6 µM and 16.7 µM. Also, the viability at 72 h, 2.5 µM in [6] came out at 96.7 ± 4.49%. In addition, in [6], the viability at 72 h, 25 µM came to 75.7 ± 4.65%.
For `N[C@@H](Cc1ccccc1)[C@@H](O)CNc1ccc(OC(F)(F)F)cc1` [LTC-1028, (2S,3S)-3-Amino-4-phenyl-1-((4-(trifluoromethoxy)phenyl)amino)butan-2-ol], the melting point lay in the range of 112 to 114 °C. Further, the viability at 25 µM in the series on L. major promastigotes (72 h) is 81.6 ± 2%. For the same compound, the viability at 25 µM in the series on L. major promastigotes (25 µM) was 0.32 ± 0.34%. Besides, in [3], the viability at 2.5 µM amounted to 78.3 ± 1.53% and the viability at 25 µM amounted to 0.58 ± 0.24%. In addition, in series [4], the viability at 25 µM came to 59.3 ± 3.42%. In addition, the viability at 2.5 µM with T. brucei brucei BSF [1] (setting [12]) turned out to be 19.7 ± 4.81%. Moreover, the viability at 25 µM with T. brucei brucei BSF [1] (Trypanosoma brucei, 25 µM) amounted to 2.01 ± 0.92%. Besides, in the series with T. cruzi trypomastigotes, the viability at 2.5 µM is 61 ± 0.78% and the viability at 25 µM worked out at 12.4 ± 0.9%. In the series on E. histolytica, the viability at 2.5 µM worked out at 71.9 ± 4.72% and the viability at 25 µM turned out to be 37.8 ± 19.9%. In series [6], the viability at 72 h, 2.5 µM was found to be 97.4 ± 5.26% and the viability at 72 h, 25 µM is -0.47 ± 0.78%. In addition, in [9], the viability at 25 µM came to 79.1 ± 22%.
With `Cc1cccc(C)c1NC[C@H](O)[C@@H](N)Cc1ccccc1` [LTC-1041, (2S,3S)-3-Amino-1-((2,6-dimethylphenyl)amino)-4-phenylbutan-2-ol], the melting point lay in the range of 63 to 65 °C. Further, the viability at 25 µM in the series with L. major promastigotes (72 h) came to 88 ± 2.36%. For the same compound, the viability at 25 µM in the series on L. major promastigotes (25 µM) is 15.5 ± 3.29%. In addition, in series [3], the viability at 2.5 µM amounted to 47.1 ± 4.67% and the viability at 25 µM was determined as 20.3 ± 4.1%. Besides, the viability at 25 µM in [4] came out at 73.8 ± 2.47%. Further, the viability at 2.5 µM with T. brucei brucei BSF [1] (setting [12]) worked out at 70.5 ± 3.15%. Further, the viability at 25 µM in the series on T. brucei brucei BSF [1] (Trypanosoma brucei, 25 µM) came out at 2.06 ± 1.4%. In the series on T. cruzi trypomastigotes, the viability at 2.5 µM worked out at 60 ± 3.23% and the viability at 25 µM amounted to 57.2 ± 4.4%. In the series with E. histolytica, the viability at 2.5 µM turned out to be 85.2 ± 16.3% and the viability at 25 µM is 128 ± 30.1%. In addition, in [6], the viability at 72 h, 2.5 µM stood at 100 ± 2.23% and the viability at 72 h, 25 µM amounted to 85.1 ± 13.9%. Further, the viability at 25 µM in [9] stood at 71.6 ± 22.8%.
